Laboratory results taken from US20190388377A1, “COMPOSITIONS AND METHODS FOR THE TREATMENT OF LIVER DISEASES AND DISORDERS” (AXCELLA HEALTH INC., priority 2018, published 2019).

Experiments:
Human CCL2 (MCP-1) = assay: MCP1 secretion by ELISA after 24 h, PHH model for NASH, Example 2; assay type: cell-based; conditions: FFA+TNFα
Procedure: (§1) PHH from two healthy human donors (Lonza, TRL) were seeded on day 0 at density of 6e04 cells in 96 well optical microplates (Thermofisher) in hepatocyte plating media (William's E medium, WEM) (Gibco) supplemented with 10% heat-inactivated FBS (Atlanta Bio), 2 mM Glutamax (Gibco), and 0.2% Primocin (InVivoGen) and incubated for 6 hours at 37° C., 5% CO2. After 6 hours, cells were washed twice and incubated overnight at 37° C., 5% CO2 with Hepatocytes defined medium (Corning) supplemented with 2 mM Glutamax (Gibco), and 1× Penicillin/Streptomycin. On day 1, cells were washed twice and incubated for 24 h in the hepatocyte culture media in the same conditions described above.
(§2) On day 2, cells were washed twice with DPBS 1× (Gibco) to remove excess amino acids and maintained in pretreatment media (1×HMDB, a defined custom amino acid concentration based on the mean physiological concentrations in blood, in WEM±supplemental amino acids): • a. Amino acid-free WEM (US Biologicals) supplemented with 11 mM Glucose (Sigma), 0.272 mM Sodium Pyruvate (Sigma), 1× P/S (Gibco) and containing 1×HMDB with no supplemental amino acids; or • b. The same media described above 1×HMDB WEM with supplemental amino acid and amino acid combination treatments at various concentrations. Cells were maintained in the defined media (a. & b.) for 24 hours at 37° C., 5% CO2. The HMDB values are published in the Human Metabolome Database (Wishart D S, Tzur D, Knox C, et al., HMDB: the Human Metabolome Database. Nucleic Acids Res. 2007 January; 35 (Database issue):D521-6. 17202168; which is hereby incorporated by reference in its entirety). Co-Treatment with Free Fatty Acids and Amino Acids Combination
(§3) After 24 h pre-treatment, cells maintained in the pretreatment media±supplemental amino acids (section (a. & b.) described above) were exposed to free fatty acids (FFA) at 250 uM with a ratio of 2:1 (Oleate:Palmitate) supplemented with TNF-α (Thermofisher) at 1 ng/ml. Cells were incubated with the FFAs mixture (FFAs+TNF-α)±supplemental amino acids treatments for 24 hours at 37° C., 5% CO2. After 24 hours incubation, media was removed for cytokine analysis and replaced by fresh media containing the same conditions described above (FFAs mixture±supplemental amino acids treatments). Cells were incubated for an additional 48 hours for a total of 72 hours of FFA and TNF-α stimulation. After 72 hours of incubation, media was removed for albumin and urea analysis and the cells were fixed for nuclei and lipid staining.
Human CCL2 (MCP-1) was measured by ELISA (Human […] DuoSet ELISA, R&D Systems) at 1/20 dilution in 1× Reagent Diluent (Reagent Ancillary Kit 2, R&D Systems). MCP1 data in primary human hepatocytes treated with FFA+TNFα+supplemental amino acids was normalized to 1×HMDB WEM+FFA+TNFα baseline. Data is reported as median fold change from control, statistical analysis was done using t-Test.

[1] = tested on: primary human hepatocytes; assay: Intracellular lipid accumulation after 72 h by fluorescence microscopy, PHH model for NASH, Example 2; assay type: cell-based; conditions: FFA+TNFα; for Lipid Median (median fold change from control): 72 h
Procedure: as §1, §2, §3
After 72 hours, cells were washed twice in 100 ul PBS 1× (Gibco), fixed with 4% Paraformaldehyde, and washed twice with PBS 1× (100 ul). After fixation, lipids were stained with HCS LipidTOX Red Neutral (Thermofisher Scientific) diluted 1000× and nuclei were stained with Hoechst 3342 (Life Technologies) diluted to 4 ug/ml. The LipidTOX™ neutral lipid stain has an extremely high affinity for neutral lipid droplets that was detected by fluorescence microscopy using a high content imager (Molecular Devices). Data was normalized to the cell concentration determined by nuclei count. Images were analyzed and total lipid area was calculated using granularity module in MetaXpress 6 software. Data is reported as median fold change from control, statistical analysis was done using t-Test.

Albumin = Albumin secretion after 72 h by ELISA, PHH model, Example 2; assay type: cell-based, human; conditions: FFA+TNFα
Procedure: as §1, §2, §3
Albumin secretion was measured as a functionality test in primary human hepatocytes. Albumin was measured by ELISA (Human Albumin ELISA Quantitation set, Bethyl Laboratories) at 1/200 dilution in the sample diluent (Bethyl Laboratories). Data is reported as median fold change from control, statistical analysis was done using t-Test.

Procollagen III = Procollagen III secretion by ELISA, TGFβ1-stimulated hepatic stellate cells, Example 4; assay type: cell-based, human; conditions: HSC, three donors
Procedure: (§4) Primary human hepatic stellate cells were obtained from Samsara Sciences. Cells from three different donors were grown in Complete HSC Medium to ˜80% confluence in T75 or T150 flasks below passage 10 were seeded into sterile, collagen I coated, 96-well optical plastic microplates (ThermoScientific) and incubated overnight at 37° C., 5% CO2 in a humidified incubator in DMEM with 2% Fetal Bovine Serum and 1% Antimycotic. […] After 24 hours of stimulus, supernatant was removed and used to measure Procollagen III and cells were then washed and fixed with 4% paraformaldehyde for further staining. Procollagen III, an important biomarker of fibrosis was measured by ELISA (Human PCIII Elisa Kit, G-Biosciences) following the manufacturer's recommendations. Fixed cells with 4% paraformaldehyde were permeabilized with 0.1% Triton X-100 then immunostained for alpha SMA and labeled for EdU incorporation.

Urea = Urea production after 72 h by urea nitrogen (BUN) colorimetric assay, PHH model, Example 2; assay type: cell-based, human; conditions: FFA+TNFα
Procedure: as §1, §2, §3
Urea was measured as an indicator of hepatocytes functionality by urea nitrogen direct assay (StanBio). Cell supernatant was added to the BUN color reagent and BUN acid reagent at 1(color):2(acid) ratio. Incubate the cell supernatant with BUN reagent for 12 min at 100° C. then for 5 min at 4° C. Read absorbance at 520 nm. Data was normalized to the control. Data is reported as median fold change from control, statistical analysis was done using t-Test.

[2] = tested on: primary human hepatocytes; assay: Intracellular triglyceride level after 72 h, colorimetric assay, Example 3; assay type: cell-based; conditions: for triglyceride level (in words): FFAs+TNFα, two healthy donors
Procedure: On day 2, cells were washed twice with DPBS 1× (Gibco) and maintained in: • a. Amino acid-free WEM (US Biologicals) supplemented with 11 mM Glucose (Sigma), 0.272 mM Sodium Pyruvate (Sigma), 1× P/S (Gibco) and containing a defined custom amino acid concentration based on the mean physiological concentrations in blood (1× HMDB WEM (−) supplemental amino acids); or • b. The same media described above 1×HMDB WEM (+) supplemental amino acids treatment dose at a 30× of HMDB amino acid concentration. Cells were maintained in the defined amino acids media (a. & b.) for 24 hours at 37° C., 5% CO2. Co-Treatment with Free Fatty Acids and Various Amino Acids Supplemental Treatments
After 24 h pre-treatment, cells maintained in the same media (a. & b.) described above 1×HMDB±supplemental amino acids were now exposed to free fatty acids (FFA) at 250 uM with a ratio of 2:1 (Oleate:Palmitate) supplemented with TNF-α (Thermofisher) at 1 ng/ml or vehicle. Cells with the FFAs+TNFα mixture±amino acids treatments were incubated for 72 hours at 37° C., 5% CO2 with a media change after the first 24 hours.
After 72 hours, cells were washed once with cold PBS 1× (Gibco), scrapped off and collected into 75 ul of standard diluent (Cayman). Collected cells were vortexed for 1 min at a 2500 rpm speed followed by two times sonication (Elmasonic sonicator) for 1 min each. Supernatants were collected for triglyceride analysis after centrifugation at 1000 rpm for 10 min at 4° C. Intracellular triglyceride level was assessed using triglyceride colorimetric assay kit (Cayman) and following manufacturer's recommendations. Data was normalized to the total amount of protein using Bicinchoninic Acid Protein Assay Kit (Sigma). Data is reported as median fold change from FFAs+TNFα condition, statistical analysis was done using t-Test.

[3] = tested on: alpha smooth muscle actin (αSMA); assay: HSC activation by alpha SMA immunostaining, TGFβ1-stimulated hepatic stellate cells; assay type: cell-based, human
Procedure: as §4, with “staining.” for “staining. Procollagen III, an important biomarker of fibrosis was measured by ELISA (Human PCIII Elisa Kit, G-Biosciences) following the manufacturer's recommendations. Fixed cells with 4% paraformaldehyde were permeabilized with 0.1% Triton X-100 then immunostained for alpha SMA and labeled for EdU incorporation.”
Procollagen III, an important biomarker of fibrosis was measured by ELISA (Human PCIII Elisa Kit, G-Biosciences) following the manufacturer's recommendations. Fixed cells with 4% paraformaldehyde were permeabilized with 0.1% Triton X-100 then immunostained for alpha SMA and labeled for EdU incorporation.
Cells were imaged using ImageXpress micro confocal high content imager (Molecular Devices). […] Image analysis was performed using MetaXpress version 6.2.3.733 (Molecular Devices).
Fixed cells immunostained for alpha smooth muscle actin (αSMA) were analyzed and stained area was normalized to total nuclei count. Fold change were calculated relative to the baseline amino acid (1×HMDB) condition stimulated with 3 ng/mL TGFβ1.

SMILES: CC(C)[C@H](N)C(=O)O [V, L-Valine]
- MCP1 secretion (in words) (Human CCL2 (MCP-1); hepatocyte donor 1): did not reduce MCP1 secretion
- Lipid Median (median fold change from control) ([1]; donor 1, AA Conc. 20X): −0.685
- lipid accumulation (in words) ([1]; hepatocyte donor 1): reduced lipid accumulation
- albumin secretion (in words) (Albumin; hepatocyte donor 1): decreased albumin production at a higher level than the previously described amino acids
- procollagen III secretion (in words) (Procollagen III): had no impact on procollagen III secretion

SMILES: N[C@@H](CO)C(=O)O [S, L-serine]
- MCP1 secretion (in words) (Human CCL2 (MCP-1); hepatocyte donor 1): did not reduce MCP1 secretion
- MCP1 secretion (in words) (Human CCL2 (MCP-1); hepatocyte donor 2): did not affect MCP1 secretion
- Lipid Median (median fold change from control) ([1]; donor 1, AA Conc. 25X): −0.178
- Lipid Median (median fold change from control) ([1]; donor 2, AA Conc. 30X): −0.42
- lipid accumulation (in words) ([1]; hepatocyte donor 1): reduced lipid accumulation
- lipid accumulation (in words) ([1]; hepatocyte donor 2): reduced lipid accumulation but less than the previously described combinations
- albumin secretion (in words) (Albumin; hepatocyte donor 1): decreased albumin production at a higher level than the previously described amino acids
- albumin secretion (in words) (Albumin; hepatocyte donor 2): reduced albumin secretion
- urea production (in words) (Urea; hepatocyte donor 1): No changes in urea production
- urea production (in words) (Urea; hepatocyte donor 2): slightly induce urea production
- Triglyceride Level relative to the baseline FFA + TNF, Median ([2]; FFA + TNF, 72 h, two donors, AA Conc 1X, Nac/Car 0 mM): −0.176
- triglyceride level (in words) [2]: didn't have an impact on triglycerides
- procollagen III secretion (in words) (Procollagen III): had no impact on procollagen III secretion

SMILES: NC(=O)CC[C@H](N)C(=O)O [Q, L-glutamine]
- MCP1 secretion (in words) (Human CCL2 (MCP-1); hepatocyte donor 1): did not reduce MCP1 secretion
- Lipid Median (median fold change from control) ([1]; donor 1, AA Conc. 20X): −0.588
- lipid accumulation (in words) ([1]; hepatocyte donor 1): reduced lipid accumulation
- albumin secretion (in words) (Albumin; hepatocyte donor 1): decreased albumin production at a higher level than the previously described amino acids
- urea production (in words) (Urea; hepatocyte donor 1): No changes in urea production
- procollagen III secretion (in words) (Procollagen III): decreased procollagen III secretion but at a lower extent than LIRNacCar and LIRQNacSCar

SMILES: CC(C)C[C@H](N)C(=O)O [L, L-leucine]
- MCP1 secretion (in words) (Human CCL2 (MCP-1); hepatocyte donor 1): did not reduce MCP1 secretion
- Lipid Median (median fold change from control) ([1]; donor 1, AA Conc. 20X): −0.725
- lipid accumulation (in words) ([1]; hepatocyte donor 1): reduced lipid accumulation
- albumin secretion (in words) (Albumin; hepatocyte donor 1): decreased albumin production at a higher level than the previously described amino acids
- urea production (in words) (Urea; hepatocyte donor 1): No changes in urea production
- procollagen III secretion (in words) (Procollagen III): had no impact on procollagen III secretion

SMILES: CC[C@H](C)[C@H](N)C(=O)O [I, L-isoleucine]
- MCP1 secretion (in words) (Human CCL2 (MCP-1); hepatocyte donor 1): did not reduce MCP1 secretion
- Lipid Median (median fold change from control) ([1]; donor 1, AA Conc. 20X): −0.105
- lipid accumulation (in words) ([1]; hepatocyte donor 1): reduced lipid accumulation
- albumin secretion (in words) (Albumin; hepatocyte donor 1): did not reduce albumin secretion
- urea production (in words) (Urea; hepatocyte donor 1): No changes in urea production
- procollagen III secretion (in words) (Procollagen III): had no impact on procollagen III secretion

SMILES: C[N+](C)(C)C[C@H](O)CC(=O)[O-] [Car, L-carnitine]
- MCP1 secretion (in words) (Human CCL2 (MCP-1); hepatocyte donor 1): did not reduce MCP1 secretion
- MCP1 secretion (in words) (Human CCL2 (MCP-1); hepatocyte donor 2): did not affect MCP1 secretion
- lipid accumulation (in words) ([1]; hepatocyte donor 1): reduced lipid accumulation
- lipid accumulation (in words) ([1]; hepatocyte donor 2): reduced lipid accumulation but less than the previously described combinations
- albumin secretion (in words) (Albumin; hepatocyte donor 1): did not reduce albumin secretion
- albumin secretion (in words) (Albumin; hepatocyte donor 2): reduced albumin secretion
- urea production (in words) (Urea; hepatocyte donor 1): No changes in urea production
- urea production (in words) (Urea; hepatocyte donor 2): slightly reduced urea production
- triglyceride level (in words) [2]: reduces triglyceride level but the effect was less pronounced than the combinations described previously
- procollagen III secretion (in words) (Procollagen III): had no impact on procollagen III secretion
- alpha SMA stained area (in words) [3]: reduced the alpha SMA stained area

SMILES: N=C(N)NCCC[C@H](N)C(=O)O [R, L-arginine]
- MCP1 secretion (in words) (Human CCL2 (MCP-1); hepatocyte donor 1): did not reduce MCP1 secretion
- lipid accumulation (in words) ([1]; hepatocyte donor 1): did not reduce lipid accumulation
- albumin secretion (in words) (Albumin; hepatocyte donor 1): did not reduce albumin secretion
- urea production (in words) (Urea; hepatocyte donor 1): induced urea production
- procollagen III secretion (in words) (Procollagen III): had no impact on procollagen III secretion
- alpha SMA stained area (in words) [3]: reduced the alpha SMA stained area
